From patent publication US20170121646A1, “Improved Stabilization of Non-Protease Enzyme” (Novozymes A/S, priority 2014, published 2017)

Assays:
Format in all cases: biochemical
Savinase [1] = biological target: T1, Savinase (Lederbergia lenta, UniProt P29600); experiment: Storage stability in Detergent M, residual protease activity after 1 week at 40° C.; settings: for Residual activity at dose 1 / Residual activity at dose 2 / Inhibitor dose 1: 1 week 40° C. vs −18° C. reference; for Inhibitor dose 1: dose 1 = concentration C found by interpolation; for ((residual activity at dose 2) − (residual activity at dose 1))/((residual activity at dose 1) − (residual activity at no inhibitor)): criterion that defines dose 1; for Inhibitor dose 2: dose 2 = 2×dose 1
T1 sequence (P29600 1-269): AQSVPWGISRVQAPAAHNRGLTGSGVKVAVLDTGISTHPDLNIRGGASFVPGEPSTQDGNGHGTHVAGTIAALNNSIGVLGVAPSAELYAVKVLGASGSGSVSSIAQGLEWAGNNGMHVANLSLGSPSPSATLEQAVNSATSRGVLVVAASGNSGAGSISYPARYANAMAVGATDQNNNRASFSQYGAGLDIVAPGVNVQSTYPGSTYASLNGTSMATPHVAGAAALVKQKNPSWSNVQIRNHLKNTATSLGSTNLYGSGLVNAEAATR
Excerpt: An inhibitor concentration C is defined, so that when the inhibitor concentration is doubled from a concentration of C to a concentration of 2C (i.e., 2C=2×C), the residual protease activity increases (“residual protease activity at 2C”−“residual protease activity at C”) by 25% of the residual protease activity increase from no inhibitor to C (“residual protease activity at C”−“residual activity at no inhibitor”). “No inhibitor” means that the concentration of inhibitor is zero.
The test system to determine “dose 1” (C) and “dose 2” (2C) is described in Example 1. A model detergent system is used (detergent A) and protease, lipase, and different concentrations of protease inhibitor are added (detergent M). Residual protease activity is determined by comparing activity after storage for 1 week at 40° C. with 1 week at −18° C. The data are used to prepare a dose response curve which is used to identify the inhibitor concentration C.
Various peptide aldehydes were produced by a custom peptide synthesis company, all with a purity>80%. The peptide aldehydes were dissolved in DMSO to a concentration of 10 mg/mL before use.
Further the following detergents with protease inhibitors were prepared. The detergents were placed in closed glasses at 40° C. Residual activity of protease was measured (by comparison to a reference stored at −18° C.) after 1 week, using standard enzyme analytical methods (protease measured by hydrolysis of N,N-dimethylcasein at 40° C., pH 8.3). The inhibitor levels tested relative to protease were in the range 0.5-500 molar ratio (inhibitor:protease). The data points were connected and the inhibitor dose 1 and dose 2 were determined by interpolation so that ((residual protease activity at dose 2)−(residual protease activity at dose 1))/((residual protease activity at dose 1)−(residual protease activity at no inhibitor))=0.25; and dose 2=2×dose 1.

Savinase [2] = biological target: T1, Savinase; experiment: Storage stability in Detergent C, residual protease activity after 4 weeks at 30° C.; settings: Detergent C with Savinase; for %-points per dose (residual protease activity): increase from dose 1 to dose 2
Protocol: (§1) Further the following detergents with protease inhibitors were prepared. The detergents were placed in closed glasses at 30° C. Residual activity of lipase and protease was measured (by comparison to a reference stored at −18° C.) after 4 weeks, using standard enzyme analytical methods (protease measured by hydrolysis of N,N-dimethylcasein at 40° C., pH 8.3 and lipase measured by hydrolysis of p-nitrophenyl valerate at 40° C., pH 7.7). Z-GA-NHCH(CH2C6H4OH)CH(OH)SO3Na was added in a concentration of 8.1 mg/L (dose 1) and 16.1 mg/L (dose 2). 4-FPBA was added in a concentration of 80 mg/L (dose 1) and 160 mg/L (dose 2).

Liquanase = experiment: as above; settings: Detergent C with Liquanase; increase from dose 1 to dose 2
Protocol: as §1

Lipase (Lipex 100L) [3] = experiment: Storage stability in Detergent B (with Savinase), residual lipase activity after 4 weeks at 30° C.; settings: increase from dose 1 (12.9 mg/L) to dose 2 (26.0 mg/L)
Protocol: (§2) Further the following detergents with protease inhibitors were prepared. The detergents were placed in closed glasses at 30° C. Residual activity of lipase and protease was measured (by comparison to a reference stored at −18° C.) after 4 weeks, using standard enzyme analytical methods (protease measured by hydrolysis of N,N-dimethylcasein at 40° C., pH 8.3 and lipase measured by hydrolysis of p-nitrophenyl valerate at 40° C., pH 7.7). Z-GA-NHCH(CH2C6H4OH)CH(OH)SO3Na was added in a concentration of 12.9 mg/L (dose 1) and 26.0 mg/L (dose 2).
Target sequence in this assay (O59952 23-291 T253R/N255R): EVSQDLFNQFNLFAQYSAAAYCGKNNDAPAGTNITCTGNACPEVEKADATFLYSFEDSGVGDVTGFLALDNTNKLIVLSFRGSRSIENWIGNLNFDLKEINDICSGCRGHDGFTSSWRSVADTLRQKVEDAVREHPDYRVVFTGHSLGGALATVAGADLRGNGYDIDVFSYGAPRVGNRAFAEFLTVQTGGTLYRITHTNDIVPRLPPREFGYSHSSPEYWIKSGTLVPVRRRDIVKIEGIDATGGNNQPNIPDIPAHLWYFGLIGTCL

Lipase (Lipex 100L) [4] = experiment: Storage stability in Detergent C with Liquanase, residual lipase activity after 4 weeks at 30° C.; settings: increase from dose 1 to dose 2
Protocol: as §1
Target sequence in this assay (O59952 23-291 T253R/N255R): as above

Lipase (Lipex 100L) [5] = experiment: Storage stability in Detergent C with Savinase, residual lipase activity after 4 weeks at 30° C.; settings: increase from dose 1 to dose 2
Protocol: as §1

Protease (Savinase 16L) = biological target: T2, Protease (Savinase 16L) (Lederbergia lenta, UniProt P29600); experiment: Storage stability in Detergent B, residual protease activity after 4 weeks at 30° C.; settings: increase from dose 1 (12.9 mg/L) to dose 2 (26.0 mg/L)
T2 sequence (P29600 1-269): T1 sequence (P29600 1-269)
Protocol: as §2

Compound	Residual activity at dose 1 (Savinase [1]) [%]	Residual activity at dose 2 (Savinase [1]) [%]	Inhibitor dose 1 (Savinase [1]) [mg/mL]	((residual activity at dose 2) − (residual activity at dose 1))/((residual activity at dose 1) − (residual activity at no inhibitor)) (Savinase [1]) [%]	Inhibitor dose 2 (Savinase [1]) [mg/mL]	%-points per dose (residual protease activity) (Savinase [2]) [%]	%-points per dose (residual protease activity) (Liquanase) [%]	%-points per dose (residual lipase activity) (Lipase (Lipex 100L) [3]) [%]	%-points per dose (residual lipase activity) (Lipase (Lipex 100L) [4]) [%]	%-points per dose (residual lipase activity) (Lipase (Lipex 100L) [5]) [%]	%-points per dose (residual protease activity) (Protease (Savinase 16L)) [%]	remaining activity at 80 µg/mL (Savinase [2]; 4 weeks 30° C. vs −18° C. reference, dose 1: Z-GA-NHCH(CH2C6H4OH)CH(OH)SO3Na 8.1 mg/L, 4-FPBA 80 mg/L, read-out: Inhibitor dose 1 (residual protease activity)) [%]	remaining activity at 160 µg/mL (Savinase [2]; 4 weeks 30° C. vs −18° C. reference, dose 2: Z-GA-NHCH(CH2C6H4OH)CH(OH)SO3Na 16.1 mg/L, 4-FPBA 160 mg/L, read-out: Inhibitor dose 2 (residual protease activity)) [%]
Cbz-Gly-Ala-Leu-H [Z-GAL-H]	50	60	5.7	25	11.5								
Z-GA-NHCH(CH2C6H4OH)CH(OH)SO3Na			8.1	25	16.1	9	0	30	25	21	10		
Cbz-Gly-Ala-Phe-H [Z-GAF-H]	75	90	18.7	25	37.5								
O=Cc1ccc(B(O)O)cc1 [4-FPBA, 4-formyl-phenyl-boronic acid]	63	75	91	25	182	0				16		98	98
